Measurements from patent US20200121677A1, “SUBSTITUTED 6,7-DIHYDROPYRAZOLO[1,5-a]PYRAZINES AS NEGATIVE ALLOSTERIC MODULATORS OF MGLUR2 RECEPTORS” (Janssen Pharmaceutica NV, priority 2014, published 2020).
Like-named read-outs stand apart in the source and are kept apart here.

What was measured:
[1] = test system: rats; experiment: Reversal of the effect of the mGluR2 PAM JNJ-42153605-induced inhibition of scopolamine-induced hyperlocomotion; assay type: in vivo, rat; details: for ED50 SCOP JNJ-42153605 (Reversal of the effect of JNJ 42153605 on scopolamine-induced hyperlocomotion) / ED50: rats, route PO, criterion total distance >1500 cm; for ED50: Rattus norvegicus, read-out: ED50 SCOP JNJ-42153605 (Reversal of the effect of JNJ 42153605 on scopolamine-induced hyperlocomotion)
Experimental: 2) Reversal of the Effect of the mGluR2 PAM JNJ-42153605-Induced Inhibition of Scopolamine-Induced Hyperlocomotion
Motor activity was measured in microprocessor-based motor activity arenas (closed gray PVC cylinders with a height of 39 cm and a diameter of 31 cm). Each arena was placed on an infrared LED (8×8 LEDs) lit box (white PVC squared box; 40×40 cm^2; height 12.5 cm. An infrared-sensitive tube camera and a white light source were mounted to the ceiling above the observation chamber to track the animal. The total distance traveled (cm) was recorded and analyzed using the Noldus Ethovision XT Video Tracking System (Version 7.0.418; Noldus, Wageningen, The Netherlands). The intensity of the light within the activity cages (measured in the centre at the level of the floor) ranged between 4 and 8 LUX.
The rats were pretreated with test compound or vehicle at 60 min before the start of the activity recordings and placed into individual cages. The rats were challenged with JNJ-42153605 (3-(cyclopropylmethyl)-7-(4-phenylpiperidin-1-yl)-8-(trifluoromethyl)[1,2,4]triazolo[4,3-a]pyridine; WO2010/130424; Cid et al. J. Med. Chem. 2012, 55, 8770-8789) (20 mg/kg, i.v.) 30 min before the start of the activity recording combined with scopolamine (0.16 mg/kg, i.v.) just before the start of the activity measurements. Immediately after the injection of scopolamine, the rats were placed into the activity monitors and total distance traveled over the first 30 min was measured.
For reversal of the inhibitory effect of JNJ-42153605 on the scopolamine-induced hyperlocomotion, the following all-or-none criteria were adopted: (1) reversal: total distance >1500 cm.

[2] = target: human mGlu2 receptor (Homo sapiens, UniProt Q14416); experiment: [35S]GTPγS binding assay, mGluR2 negative allosteric modulation (membranes from CHO cells transfected with human mGlu2 receptor, glutamate ~EC80 60 μM); details: for GTPγS - hmGluR2 anGT pIC50: membranes with human mGlu2 receptor; for GTPγS - hmGluR2 anGT pIC50 / IC50: glutamate ~EC80 (60 μM), pIC50 = -log IC50 (M); for GTPγS - hmGluR2 anGT Emax: relative maximal effect: maximal % inhibition relative to the control glutamate response; for IC50: GTPγS - hmGluR2 anGT pIC50, membranes with human mGlu2 receptor;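 as to all read-outs here: membranes preincubated 30 min at 30 °C with compound plus glutamate, then [35S]GTPγS (0.1 nM) incorporation measured over another 30 min at 30 °C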
[3] = historical solvent-pretreated control rats, first 30 min, JNJ-42153605 20 mg/kg i.v., scopolamine 0.16 mg/kg i.v.
[4] = read-out: GTPγS - hmGluR2 anGT Emax, relative maximal effect: maximal % inhibition relative to the control glutamate response

Chain of human mGlu2 receptor (Q14416 19-872): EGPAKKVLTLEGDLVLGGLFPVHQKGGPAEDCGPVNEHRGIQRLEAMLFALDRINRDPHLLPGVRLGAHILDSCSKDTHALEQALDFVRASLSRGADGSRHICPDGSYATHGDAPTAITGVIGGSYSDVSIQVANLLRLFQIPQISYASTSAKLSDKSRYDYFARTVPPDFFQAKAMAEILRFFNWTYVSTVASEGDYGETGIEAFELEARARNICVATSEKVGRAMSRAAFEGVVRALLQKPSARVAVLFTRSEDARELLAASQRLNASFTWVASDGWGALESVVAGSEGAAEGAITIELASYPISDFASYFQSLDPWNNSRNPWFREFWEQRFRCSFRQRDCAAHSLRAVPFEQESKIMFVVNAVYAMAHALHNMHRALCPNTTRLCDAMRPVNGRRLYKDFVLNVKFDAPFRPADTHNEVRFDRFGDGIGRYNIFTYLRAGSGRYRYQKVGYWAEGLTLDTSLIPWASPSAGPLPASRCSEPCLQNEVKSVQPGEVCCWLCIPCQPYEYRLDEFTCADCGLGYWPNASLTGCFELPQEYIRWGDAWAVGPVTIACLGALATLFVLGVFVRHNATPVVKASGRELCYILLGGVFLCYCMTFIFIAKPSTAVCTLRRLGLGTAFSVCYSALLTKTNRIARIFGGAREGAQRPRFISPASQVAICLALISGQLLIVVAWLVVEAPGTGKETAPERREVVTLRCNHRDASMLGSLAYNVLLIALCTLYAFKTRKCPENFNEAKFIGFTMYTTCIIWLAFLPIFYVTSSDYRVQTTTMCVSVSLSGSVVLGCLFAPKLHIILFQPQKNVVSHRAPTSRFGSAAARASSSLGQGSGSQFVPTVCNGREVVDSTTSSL

melting point [°C] | IC50 [2] [M] | Emax [2, 4] [%] | SMILES | ED50 [1] [mg/kg] | other results
179.56 | 3.63e-09 | 107 | C[C@H]1CN(c2ccc(Cl)c(Cl)c2)C(=O)c2c(C(=O)Nc3ccc(F)cn3)cnn21 [compound 98, (7S)-5-(3,4-Dichlorophenyl)-N-(5-fluoro-2-pyridyl)-7-methyl-4-oxo-6,7-dihydropyrazolo[1,5-a]pyrazine-3-carboxamide] | > 0.63 | –
184.48 | 8.13e-09 | 108 | C[C@H]1CN(c2ccc(C(F)(F)F)cc2)C(=O)c2c(C(=O)Nc3ccc(F)cn3)cnn21 [compound 104] | > 0.63 | –
– | 1.15e-09 | 111 | C[C@H]1CN(c2ccc(C(F)(F)F)c(Cl)c2)C(=O)c2c(C(=O)Nc3cnccn3)cnn21 [compound 106] | 0.32 | –
212.88 | 2.82e-09 | 104 | C[C@H]1CN(c2ccc(C(F)(F)F)c(Cl)c2)C(=O)c2c(C(=O)Nc3ccc(F)cn3)cnn21 [compound 108] | > 0.63 | –
– | 1.12e-09 | 106 | Cc1cc(N2C[C@H](C)n3ncc(C(=O)Nc4cnccn4)c3C2=O)ccc1C(F)(F)F [compound 112] | 0.2 | –
209.5 | 1.23e-09 | 126 | C[C@H]1CN(c2ccc(C(F)(F)F)cc2)C(=O)c2c(C(=O)Nc3cncc(F)n3)cnn21 [compound 145] | – | –
172.9 | 9.55e-10 | 128 | C[C@H]1CN(c2ccc(Cl)c(Cl)c2)C(=O)c2c(C(=O)Nc3cncc(F)n3)cnn21 [compound 146] | – | –
150.83 | 1.86e-08 | 105 | C[C@H]1CN(c2ccc(C(F)(F)F)cc2)C(=O)c2c(C(=O)Nc3cncc(CO)c3)cnn21 [compound 148, (7S)—N-[5-(hydroxymethyl)pyridin-3-yl]-7-methyl-4-oxo-5-[4-(trifluoromethyl)phenyl]-4,5,6,7-tetrahydropyrazolo[1,5-a]pyrazine-3-carboxamide] | – | –
169.28 | 8.13e-09 | 107 | C[C@H]1CN(c2ccc(C(F)(F)F)cc2)C(=O)c2c(C(=O)Nc3ccnc(CO)c3)cnn21 [compound 150] | – | –
229.9 | 1.23e-07 | 111 | O=C(Nc1cccnc1)c1cnn2c1C(=O)N(c1ccc(C(F)(F)F)cc1)CC2 [compound 153] | – | –

Further lines, the compound ahead of its results:

SMILES | melting point [°C] | IC50 [2] [M] | Emax [2, 4] [%] | ED50 [1] [mg/kg] | other results
COCC1CN(c2ccc(C(F)(F)F)cc2)C(=O)c2c(C(=O)Nc3cnccn3)cnn21 (single isomer, unassigned) [compound 154] | – | – | – | – | ED50 SCOP JNJ-42153605 (Reversal of the effect of JNJ 42153605 on scopolamine-induced hyperlocomotion) [1]: 0.63 mg/kg; GTPγS - hmGluR2 anGT pIC50 [2]: 8.31; GTPγS - hmGluR2 anGT Emax [2]: 113%
COCC1CN(c2ccc(C(F)(F)F)c(Cl)c2)C(=O)c2c(C(=O)Nc3cccnc3)cnn21 (single isomer, unassigned) [compound 156] | – | – | – | – | ED50 SCOP JNJ-42153605 (Reversal of the effect of JNJ 42153605 on scopolamine-induced hyperlocomotion) [1]: 0.20 mg/kg; GTPγS - hmGluR2 anGT pIC50 [2]: 8.77; GTPγS - hmGluR2 anGT Emax [2]: 107%
COCC1CN(c2ccc(C(F)(F)F)cc2)C(=O)c2c(C(=O)Nc3cccnc3)cnn21 (single isomer, unassigned) [compound 158] | – | – | – | – | ED50 SCOP JNJ-42153605 (Reversal of the effect of JNJ 42153605 on scopolamine-induced hyperlocomotion) [1]: >0.63 mg/kg; GTPγS - hmGluR2 anGT pIC50 [2]: 8.48; GTPγS - hmGluR2 anGT Emax [2]: 108%
CN1[C@@H]2C[C@@H](OC(=O)[C@H](CO)c3ccccc3)C[C@H]1[C@@H]1O[C@@H]12 [Scopolamine, scopolamine] | – | – | – | – | Total distance traveled >1500 cm (%) [1, 3]: 100%; Total distance traveled >4400 cm (%) [1, 3]: 95.8%; Total distance traveled, Median (cm) [1, 3]: 7246 cm
C[C@H]1CN(c2ccc(C(F)(F)F)cc2)C(=O)c2c(C(=O)Nc3ccncc3)cnn21 [compound 3] | 160.2 | 2.09e-09 | 116 | 0.08 | –
C[C@H]1CN(c2ccc(C(F)(F)F)cc2)C(=O)c2c(C(=O)Nc3ccncc3F)cnn21 [compound 4] | 189 | 3.02e-09 | 117 | 1.01 | –
C[C@H]1CN(c2ccc(C(F)(F)F)cc2)C(=O)c2c(C(=O)Nc3ccc(F)cc3)cnn21 [compound 7] | 185.3 | 4.68e-09 | 103 | > 2.5 | –
C[C@H]1CN(c2ccc(C(F)(F)F)cc2)C(=O)c2c(C(=O)Nc3ccc(N)nc3)cnn21 [compound 19] | 181.5 | 2.63e-09 | 104 | 0.79 | –
Cc1cncc(NC(=O)c2cnn3c2C(=O)N(c2ccc(Cl)c(Cl)c2)C[C@@H]3C)c1 [compound 28] | – | – | – | – | ED50 SCOP JNJ-42153605 (Reversal of the effect of JNJ 42153605 on scopolamine-induced hyperlocomotion) [1]: >0.63 mg/kg; GTPγS - hmGluR2 anGT pIC50 [2]: 9.06; GTPγS - hmGluR2 anGT Emax [2]: 107%
COc1cncc(NC(=O)c2cnn3c2C(=O)N(c2ccc(Cl)c(Cl)c2)C[C@@H]3C)c1 [compound 29] | – | – | – | – | ED50 SCOP JNJ-42153605 (Reversal of the effect of JNJ 42153605 on scopolamine-induced hyperlocomotion) [1]: >0.63 mg/kg; GTPγS - hmGluR2 anGT pIC50 [2]: 8.75; GTPγS - hmGluR2 anGT Emax [2]: 107%
COc1cc(N2C[C@H](C)n3ncc(C(=O)Nc4cnccc4C)c3C2=O)ccc1C(F)(F)F [compound 32] | 243.4 | 3.47e-09 | 111 | > 0.63 | –
COc1cc(N2C[C@H](C)n3ncc(C(=O)Nc4cncc(C)c4)c3C2=O)ccc1C(F)(F)F [compound 33] | 216.6 | 3.72e-09 | 111 | > 0.63 | –
C[C@H]1CN(c2ccc(C(F)(F)F)c(F)c2)C(=O)c2c(C(=O)Nc3ccc(F)cn3)cnn21 [compound 78] | 183.36 | 1.35e-08 | 106 | > 0.63 | –
Cc1cc(NC(=O)c2cnn3c2C(=O)N(c2ccc(C(F)(F)F)c(C)c2)C[C@@H]3C)ccn1 [compound 86] | 121.8 | 2.29e-09 | 105 | 1.26 | –
Cc1cc(NC(=O)c2cnn3c2C(=O)N(c2ccc(Cl)cc2)C[C@@H]3C)ccn1 [compound 89] | 171.4 | 1.05e-08 | 107 | > 2.5 | –
COCc1cc(N2C[C@H](C)n3ncc(C(=O)Nc4ccnc(C)c4)c3C2=O)ccc1C(F)(F)F [compound 95] | – | 5.5e-09 | 112 | > 2.5 | –
COc1cccc(NC(=O)c2cnn3c2C(=O)N(c2ccc(C(F)(F)F)cc2)C[C@@H]3C)n1 [compound 105] | – | – | – | – | ED50 SCOP JNJ-42153605 (Reversal of the effect of JNJ 42153605 on scopolamine-induced hyperlocomotion) [1]: >2.5 mg/kg; GTPγS - hmGluR2 anGT pIC50 [2]: 8.21; GTPγS - hmGluR2 anGT Emax [2]: 108%
Cc1cc(N2C[C@H](C)n3ncc(C(=O)Nc4ccc(F)cn4)c3C2=O)ccc1C(F)(F)F [compound 110] | – | – | – | – | ED50 SCOP JNJ-42153605 (Reversal of the effect of JNJ 42153605 on scopolamine-induced hyperlocomotion) [1]: >0.63 mg/kg; GTPγS - hmGluR2 anGT pIC50 [2]: 8.3; GTPγS - hmGluR2 anGT Emax [2]: 107%
C[C@H]1CN(c2ccc(C(F)(F)F)cc2)C(=O)c2c(C(=O)Nc3ccc(S(=O)(=O)F)cc3)cnn21 [compound 167] | 205.04 | 4.27e-08 | – | – | Emax ([2]; read-out: GTPγS - hmGluR2 anGT Emax): 107%
